Test results from PubChem BioAssay (NCI).
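Briefly, cells in 96-well plates were exposed to five compound concentrations for 48 h, and endpoints were estimated by linear interpolation. The concentration for 50% growth inhibition is given as GI50. TGI denotes the concentration required for complete inhibition of growth.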

What was measured:
Assay in all cases: inhibition of tumour cell growth, NCI panel, 48 h
K-562 leukemia = system: K-562 leukemia
NCI-H460 lung = system: NCI-H460 lung
SNB-19 CNS = system: SNB-19 CNS
MCF7 breast = system: MCF7 breast
OVCAR-5 ovarian = system: OVCAR-5 ovarian
HCT-116 colon = system: HCT-116 colon
UACC-257 melanoma = system: UACC-257 melanoma
MDA-MB-231 breast = system: MDA-MB-231 breast
T-47D breast = system: T-47D breast
SK-MEL-5 melanoma = system: SK-MEL-5 melanoma
RXF 393 renal = system: RXF 393 renal
UACC-62 melanoma = system: UACC-62 melanoma
DU-145 prostate = system: DU-145 prostate
HT29 colon = system: HT29 colon
TK-10 renal = system: TK-10 renal
BT-549 breast = system: BT-549 breast
NCI/ADR-RES ovarian = system: NCI/ADR-RES ovarian
A498 renal = system: A498 renal
CAKI-1 renal = system: CAKI-1 renal
EKVX NSCLC = system: EKVX NSCLC
NCI-H522 lung = system: NCI-H522 lung
HOP-62 NSCLC = system: HOP-62 NSCLC
SK-OV-3 ovarian = system: SK-OV-3 ovarian
COLO 205 colon = system: COLO 205 colon
HOP-92 NSCLC = system: HOP-92 NSCLC
HCC-2998 colon = system: HCC-2998 colon
HL-60(TB) leukemia = system: HL-60(TB) leukemia
HCT-15 colon = system: HCT-15 colon
OVCAR-8 ovarian = system: OVCAR-8 ovarian
SW-620 colon = system: SW-620 colon
SNB-75 CNS = system: SNB-75 CNS
HS 578T breast = system: HS 578T breast
SR leukemia = system: SR leukemia
OVCAR-3 ovarian = system: OVCAR-3 ovarian
UO-31 renal = system: UO-31 renal
SK-MEL-2 melanoma = system: SK-MEL-2 melanoma
SF-295 CNS = system: SF-295 CNS
IGROV1 ovarian = system: IGROV1 ovarian
KM12 colon = system: KM12 colon
U251 CNS = system: U251 CNS
RPMI-8226 leukemia = system: RPMI-8226 leukemia
ACHN renal = system: ACHN renal
SK-MEL-28 melanoma = system: SK-MEL-28 melanoma
NCI-H23 lung = system: NCI-H23 lung
MOLT-4 leukemia = system: MOLT-4 leukemia
M14 melanoma = system: M14 melanoma
SF-539 CNS = system: SF-539 CNS
A549 NSCLC = system: A549 NSCLC
LOX IMVI melanoma = system: LOX IMVI melanoma
MALME-3M melanoma = system: MALME-3M melanoma
OVCAR-4 ovarian = system: OVCAR-4 ovarian
PC-3 prostate = system: PC-3 prostate
MDA-MB-435 = system: MDA-MB-435
786-0 renal = system: 786-0 renal
SN12C renal = system: SN12C renal
SF-268 CNS = system: SF-268 CNS
NCI-H226 lung = system: NCI-H226 lung
CCRF-CEM leukemia = system: CCRF-CEM leukemia

CCCCCCCCCCCCCC[P+](CCCCCC)(CCCCCC)CCCCCC
GI50 (K-562 leukemia): 23.2 nM
TGI (K-562 leukemia): 85.8 nM
GI50 (NCI-H460 lung): 315 nM
TGI (NCI-H460 lung): 1220 nM
GI50 (SNB-19 CNS): 68.8 nM
TGI (SNB-19 CNS): > 100000 nM
GI50 (MCF7 breast): 146 nM
TGI (MCF7 breast): 1300 nM
GI50 (OVCAR-5 ovarian): 267 nM
GI50 (HCT-116 colon): 60.6 nM
TGI (HCT-116 colon): > 100000 nM
GI50 (UACC-257 melanoma): 75.5 nM
TGI (UACC-257 melanoma): 790 nM
GI50 (MDA-MB-231 breast): 59.6 nM
TGI (MDA-MB-231 breast): 1490 nM
GI50 (T-47D breast): 50.1 nM
GI50 (SK-MEL-5 melanoma): 82.9 nM
TGI (SK-MEL-5 melanoma): 258 nM
GI50 (RXF 393 renal): 141 nM
TGI (RXF 393 renal): 1400 nM
GI50 (UACC-62 melanoma): 42.2 nM
TGI (UACC-62 melanoma): 1900 nM
GI50 (DU-145 prostate): 85.7 nM
TGI (DU-145 prostate): 1680 nM
GI50 (HT29 colon): 52.7 nM
TGI (HT29 colon): 3260 nM
GI50 (TK-10 renal): 198 nM
TGI (TK-10 renal): 1920 nM
GI50 (BT-549 breast): 41.2 nM
TGI (BT-549 breast): 381 nM
GI50 (NCI/ADR-RES ovarian): 730 nM
TGI (NCI/ADR-RES ovarian): > 100000 nM
TGI (A498 renal): 1030 nM
GI50 (CAKI-1 renal): 236 nM
TGI (CAKI-1 renal): 771 nM
GI50 (EKVX NSCLC): 63.2 nM
TGI (EKVX NSCLC): 917 nM
GI50 (NCI-H522 lung): 105 nM
TGI (NCI-H522 lung): 956 nM
GI50 (HOP-62 NSCLC): 229 nM
GI50 (SK-OV-3 ovarian): 200 nM
GI50 (COLO 205 colon): 144 nM
TGI (COLO 205 colon): 2080 nM
GI50 (HOP-92 NSCLC): 29.9 nM
TGI (HOP-92 NSCLC): 423 nM
GI50 (HCC-2998 colon): 168 nM
TGI (HCC-2998 colon): 1690 nM
GI50 (HL-60(TB) leukemia): 30.3 nM
TGI (HL-60(TB) leukemia): 96.6 nM
GI50 (HCT-15 colon): 270 nM
TGI (HCT-15 colon): > 100000 nM
GI50 (OVCAR-8 ovarian): 85.6 nM
TGI (OVCAR-8 ovarian): 1780 nM
GI50 (SW-620 colon): 34.1 nM
TGI (SW-620 colon): 1150 nM
GI50 (SNB-75 CNS): 125 nM
GI50 (HS 578T breast): 41 nM
GI50 (SR leukemia): 19.6 nM
TGI (SR leukemia): 60.8 nM
GI50 (OVCAR-3 ovarian): 34.5 nM
TGI (OVCAR-3 ovarian): 295 nM
GI50 (UO-31 renal): 290 nM
GI50 (SK-MEL-2 melanoma): 26.6 nM
TGI (SK-MEL-2 melanoma): > 100000 nM
GI50 (SF-295 CNS): 78.3 nM
TGI (SF-295 CNS): 432 nM
GI50 (IGROV1 ovarian): 70.5 nM
TGI (IGROV1 ovarian): 25700 nM
GI50 (KM12 colon): 39.7 nM
TGI (KM12 colon): 375 nM
GI50 (U251 CNS): 38.4 nM
TGI (U251 CNS): 1290 nM
GI50 (RPMI-8226 leukemia): 15.8 nM
TGI (RPMI-8226 leukemia): 39.5 nM
GI50 (ACHN renal): 260 nM
TGI (ACHN renal): 1510 nM
GI50 (SK-MEL-28 melanoma): 101 nM
TGI (SK-MEL-28 melanoma): 1440 nM
GI50 (NCI-H23 lung): 83 nM
TGI (NCI-H23 lung): 1400 nM
GI50 (MOLT-4 leukemia): 68.9 nM
TGI (MOLT-4 leukemia): 952 nM
GI50 (M14 melanoma): 52.1 nM
TGI (M14 melanoma): 2910 nM
GI50 (SF-539 CNS): 202 nM
TGI (SF-539 CNS): 1720 nM
GI50 (A549 NSCLC): 292 nM
TGI (A549 NSCLC): > 100000 nM
GI50 (LOX IMVI melanoma): 58.3 nM
TGI (LOX IMVI melanoma): 497 nM
GI50 (MALME-3M melanoma): 27.1 nM
TGI (MALME-3M melanoma): 72.1 nM
GI50 (OVCAR-4 ovarian): 126 nM
GI50 (PC-3 prostate): 30 nM
TGI (PC-3 prostate): 125 nM
GI50 (MDA-MB-435): 37.2 nM
TGI (MDA-MB-435): 391 nM
GI50 (786-0 renal): 253 nM
TGI (786-0 renal): 2100 nM
GI50 (SN12C renal): 41 nM
TGI (SN12C renal): 1170 nM

COc1ccc(Nc2ncccc2/C=C/C(=O)c2cc(OC)c(OC)c(OC)c2)cc1
GI50 (K-562 leukemia): 783 nM
TGI (K-562 leukemia): 3510 nM
GI50 (NCI-H460 lung): 2010 nM
TGI (NCI-H460 lung): 4250 nM
GI50 (SNB-19 CNS): 2140 nM
TGI (SNB-19 CNS): 6330 nM
GI50 (MCF7 breast): 695 nM
TGI (MCF7 breast): 2090 nM
GI50 (OVCAR-5 ovarian): 1970 nM
TGI (OVCAR-5 ovarian): 3830 nM
GI50 (HCT-116 colon): 1020 nM
TGI (HCT-116 colon): 2280 nM
GI50 (UACC-257 melanoma): 1530 nM
TGI (UACC-257 melanoma): 2920 nM
GI50 (MDA-MB-231 breast): 1940 nM
TGI (MDA-MB-231 breast): 5740 nM
GI50 (T-47D breast): 1670 nM
TGI (T-47D breast): 4030 nM
GI50 (SK-MEL-5 melanoma): 1390 nM
TGI (SK-MEL-5 melanoma): 2680 nM
GI50 (RXF 393 renal): 1490 nM
TGI (RXF 393 renal): 2820 nM
GI50 (UACC-62 melanoma): 1560 nM
TGI (UACC-62 melanoma): 3300 nM
GI50 (DU-145 prostate): 1590 nM
TGI (DU-145 prostate): 2930 nM
GI50 (HT29 colon): 1600 nM
TGI (HT29 colon): 3160 nM
GI50 (BT-549 breast): 1580 nM
TGI (BT-549 breast): 3080 nM
GI50 (NCI/ADR-RES ovarian): 2230 nM
TGI (NCI/ADR-RES ovarian): 13700 nM
GI50 (A498 renal): 3190 nM
TGI (A498 renal): 11700 nM
GI50 (CAKI-1 renal): 1520 nM
TGI (CAKI-1 renal): 3880 nM
GI50 (EKVX NSCLC): 1800 nM
TGI (EKVX NSCLC): 4010 nM
GI50 (NCI-H522 lung): 360 nM
TGI (NCI-H522 lung): 1640 nM
GI50 (HOP-62 NSCLC): 1780 nM
TGI (HOP-62 NSCLC): 3750 nM
GI50 (SK-OV-3 ovarian): 2720 nM
TGI (SK-OV-3 ovarian): 8560 nM
GI50 (COLO 205 colon): 1690 nM
TGI (COLO 205 colon): 3060 nM
GI50 (HOP-92 NSCLC): 1590 nM
TGI (HOP-92 NSCLC): 4280 nM
GI50 (HCC-2998 colon): 1680 nM
TGI (HCC-2998 colon): 3090 nM
GI50 (SF-268 CNS): 1770 nM
TGI (SF-268 CNS): 4080 nM
GI50 (HCT-15 colon): 1660 nM
TGI (HCT-15 colon): 5060 nM
GI50 (OVCAR-8 ovarian): 1560 nM
TGI (OVCAR-8 ovarian): 4220 nM
GI50 (SW-620 colon): 1200 nM
TGI (SW-620 colon): 2430 nM
GI50 (SNB-75 CNS): 1150 nM
TGI (SNB-75 CNS): 2370 nM
GI50 (NCI-H226 lung): 1370 nM
TGI (NCI-H226 lung): 2810 nM
GI50 (CCRF-CEM leukemia): 500 nM
TGI (CCRF-CEM leukemia): > 100000 nM
GI50 (HS 578T breast): 2680 nM
TGI (HS 578T breast): 9600 nM
GI50 (SR leukemia): 464 nM
TGI (SR leukemia): 3980 nM
GI50 (OVCAR-3 ovarian): 1640 nM
TGI (OVCAR-3 ovarian): 2990 nM
GI50 (UO-31 renal): 1120 nM
TGI (UO-31 renal): 2330 nM
GI50 (SK-MEL-2 melanoma): 1470 nM
TGI (SK-MEL-2 melanoma): 2990 nM
GI50 (SF-295 CNS): 1850 nM
TGI (SF-295 CNS): 5590 nM
GI50 (IGROV1 ovarian): 2000 nM
TGI (IGROV1 ovarian): 5310 nM
GI50 (KM12 colon): 1690 nM
TGI (KM12 colon): 3220 nM
GI50 (U251 CNS): 1270 nM
TGI (U251 CNS): 2520 nM
GI50 (ACHN renal): 1550 nM
TGI (ACHN renal): 2960 nM
GI50 (SK-MEL-28 melanoma): 1370 nM
TGI (SK-MEL-28 melanoma): 2660 nM
GI50 (NCI-H23 lung): 1720 nM
TGI (NCI-H23 lung): 3790 nM
GI50 (MOLT-4 leukemia): 2090 nM
TGI (MOLT-4 leukemia): 5450 nM
GI50 (M14 melanoma): 1650 nM
TGI (M14 melanoma): 3160 nM
GI50 (SF-539 CNS): 2040 nM
TGI (SF-539 CNS): 5150 nM
GI50 (LOX IMVI melanoma): 1230 nM
TGI (LOX IMVI melanoma): 2480 nM
GI50 (MALME-3M melanoma): 1400 nM
TGI (MALME-3M melanoma): 2870 nM
GI50 (OVCAR-4 ovarian): 1620 nM
TGI (OVCAR-4 ovarian): 3470 nM
GI50 (PC-3 prostate): 2820 nM
TGI (PC-3 prostate): 8710 nM
GI50 (MDA-MB-435): 1460 nM
TGI (MDA-MB-435): 3360 nM
GI50 (786-0 renal): 1690 nM
TGI (786-0 renal): 3220 nM
GI50 (SN12C renal): 1560 nM
TGI (SN12C renal): 3440 nM
